Measured values as given in patent publication US20150197492A1, “NOVEL INDENO[1,2-c]QUINOLIN-11-ONE DERIVATIVES, PREPARATION METHOD AND APPLICATION THEREOF” (National Defense Medical Center, priority 2014, published 2015).

Assays:
Assay type in all cases: cell-based
U251 = assay: cells; settings: CNS Cancer U251
A498 = assay: cells
NCI-H226 = assay: cells
MALME-3M = assay: cells
M14 = assay: cells
MDA-MB-468 = assay: cells
K-562 = assay: cells
human PC-3 cells = assay: Sulforhodamine B (SRB) assay, cytotoxicity against PC-3 cells; settings: SRB assay, PC-3 cells
How it was run: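 PC-3 cells in 5% FBS were fixed with 10% TCA after 24 h as T0, then treated with compound for 48 h, fixed, stained with 0.4% SRB in 1% acetic acid and solubilized in 10 mmol/L Trizma base. Absorbance was read at 515 nm. GI% = 100−[(Tx−T0)/(C−T0)]×100, and IC50 is the concentration halving total protein.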

ACHN = assay: cells
SNB-75 = assay: cells
SK-OV-3 = assay: cells
DU-145 = assay: cells
SNB-19 = assay: cells
[1] = system: 55 to 60 cancer cell lines; settings: 10 μM
LOX IMVI = assay: cells; settings: Melanoma LOX IMV1
NCI-H460 = assay: cells
OVCAR-8 = assay: cells
SW-620 = assay: cells
OVCAR-4 = assay: cells
MDA-MB-231/ATCC = assay: cells
T-47D = assay: cells
SF-295 = assay: cells
MCF7 = assay: cells
COLO 205 = assay: cells
PC-3 = assay: cells
SF-539 = assay: cells
UACC-62 = assay: cells
SR = assay: cells
NCI-H322M = assay: cells
SN12C = assay: cells
[2] = Homo sapiens, Melanoma MALME-3M
[3] = Homo sapiens, K562, Leukemia K-562
[4] = Homo sapiens, CNS Cancer SNB-19
[5] = Homo sapiens, Colon Cancer SW-620
[6] = Homo sapiens, Breast Cancer MDA-MB-231/ATCC
[7] = Homo sapiens, CNS Cancer SF-295
[8] = Homo sapiens, Colon Cancer COLO 205
[9] = Homo sapiens, CNS Cancer SF-539

O=C1c2cc(Cl)ccc2-c2c(N3CCNCC3)nc3ccccc3c21 [SJ-10, 9-Chloro-6-(piperazin-1-yl)-11H-indeno[1,2-c]quinolin-11-one] gave a TGI (U251) greater than 100 µM, a GI50 (U251; Homo sapiens, U-251) of 4.82 µM and an LC50 (concentration killing 50% of cells) (U251; Homo sapiens, U-251) greater than 100 µM. For the same compound, the growth percentage (A498; A498 (Renal Cancer), 10 μM, 48 hours) was 59.79%, the GI50 (A498; Homo sapiens, Renal Cancer A498) was 2.63 µM and the CC50 (A498; Homo sapiens, Renal Cancer A498, read-out: LC50 (the source's name)) was greater than 100 µM. It also gave a TGI (A498; Renal Cancer A498) greater than 100 µM, a GI50 (NCI-H226; Homo sapiens, Non-Small Cell Lung Cancer NCI-H226) of 7.77 µM and a CC50 (NCI-H226; Homo sapiens, Non-Small Cell Lung Cancer NCI-H226, read-out: LC50 (the source's name)) greater than 100 µM. It also gave a growth percentage (NCI-H226; NCI-H226 (Non-Small Cell Lung Cancer), 10 μM, 48 hours) of 49.94%, a TGI (NCI-H226; Non-Small Cell Lung Cancer NCI-H226) greater than 100 µM and a GI50 (MALME-3M; [2]) of 8.87 µM. It also gave an LC50 (concentration killing 50% of cells) (MALME-3M; [2]) greater than 100 µM, a growth percentage (MALME-3M; MALME-3M (Melanoma), 10 μM, 48 hours) of -32.28% and a TGI (MALME-3M; Melanoma MALME-3M) greater than 100 µM. For the same compound, the GI50 (M14; Homo sapiens, Melanoma M14) was 7.49 µM, the CC50 (M14; Homo sapiens, Melanoma M14, read-out: LC50 (the source's name)) was greater than 100 µM and the growth percentage (M14; M14 (Melanoma), 10 μM, 48 hours) was -56.24%. It also gave a TGI (M14; Melanoma M14) greater than 100 µM, a TGI (MDA-MB-468; Breast Cancer MDA-MB-468) greater than 100 µM and a GI50 (MDA-MB-468; Homo sapiens, Breast Cancer MDA-MB-468) of 4.42 µM. For the same compound, the CC50 (MDA-MB-468; Homo sapiens, Breast Cancer MDA-MB-468, read-out: LC50 (the source's name)) was greater than 100 µM, the growth percentage (MDA-MB-468; MDA-MB-468 (Breast Cancer), 10 μM, 48 hours) was -35.66% and the GI50 (K-562; [3]) was 7.8 µM. It also gave an LC50 (lethal concentration, 50% cell kill) (K-562; [3]) greater than 100 µM, a growth percentage (K-562; K-562 (Leukemia), 10 μM, 48 hours) of -65.71% and a TGI (K-562; Leukemia K-562) greater than 100 µM. The “Toxicity (%)” value (human PC-3 cells) was 47.2%, the “GI % (10 μM)” value (human PC-3 cells; 10 μM) was 100% and the growth percentage (ACHN; ACHN (Renal Cancer), 10 μM, 48 hours) was -83.29%. It also gave a GI50 (ACHN; Homo sapiens, Renal Cancer ACHN) of 3.14 µM, a CC50 (ACHN; Homo sapiens, Renal Cancer ACHN, read-out: LC50 (the source's name)) greater than 100 µM and a TGI (ACHN; Renal Cancer ACHN) greater than 100 µM. For the same compound, the TGI (SNB-75; CNS Cancer SNB-75) was greater than 100 µM, the GI50 (SNB-75; Homo sapiens, CNS Cancer SNB-75) was 4.53 µM and the CC50 (SNB-75; Homo sapiens, CNS Cancer SNB-75, read-out: LC50 (the source's name)) was greater than 100 µM. The growth percentage (SNB-75; SNB-75 (CNS Cancer), 10 μM, 48 hours) was 22.34%, the GI50 (SK-OV-3; Homo sapiens, Ovarian Cancer SK-OV-3) was 4.35 µM and the CC50 (SK-OV-3; Homo sapiens, Ovarian Cancer SK-OV-3, read-out: LC50 (the source's name)) was greater than 100 µM. It also gave a TGI (SK-OV-3; Ovarian Cancer SK-OV-3) greater than 100 µM, a growth percentage (SK-OV-3; SK-OV-3 (Ovarian Cancer), 10 μM, 48 hours) of 57.81% and a growth percentage (DU-145; DU-145 (Prostate Cancer), 10 μM, 48 hours) of -41.83%. It also gave a GI50 (DU-145; Homo sapiens, Prostate Cancer DU-145) of 4.79 µM, a CC50 (DU-145; Homo sapiens, Prostate Cancer DU-145, read-out: LC50 (the source's name)) greater than 100 µM and a TGI (DU-145; Prostate Cancer DU-145) greater than 100 µM. For the same compound, the TGI (SNB-19; CNS Cancer SNB-19) was greater than 100 µM, the GI50 (SNB-19; [4]) was 8.27 µM and the LC50 (SNB-19; [4]) was greater than 100 µM. For the same compound, the growth percentage (SNB-19; SNB-19 (CNS Cancer), 10 μM, 48 hours) was 67.25%, the “inhibition effect in different cancer cell lines (summary of the NCI data, in words)” value ([1]; 48 hours) was “preferable inhibition effects in leukemia and colon cancer cells” and the “Mean (mean growth percentage of the tested cancer cell lines)” value ([1]; 48 hours, all tested cell lines) was −14.37%. The “cytotoxicity in the first stage (in words)” value ([1]; basis for selection for the five-dose test) was “potential cytotoxicity”, the GI50 (LOX IMVI; Homo sapiens, LOX IMVI) was 4.74 µM and the CC50 (LOX IMVI; Homo sapiens, LOX IMVI, read-out: LC50 (the source's name)) was greater than 100 µM. The TGI (LOX IMVI) was greater than 100 µM, the GI50 (NCI-H460; Homo sapiens, Non-Small Cell Lung Cancer NCI-460) was 4.15 µM and the CC50 (NCI-H460; Homo sapiens, Non-Small Cell Lung Cancer NCI-460, read-out: LC50 (the source's name)) was greater than 100 µM. The growth percentage (NCI-H460; NCI-H460 (Non-Small Cell Lung Cancer), 10 μM, 48 hours) was -66.36%, the TGI (NCI-H460; Non-Small Cell Lung Cancer NCI-460) was greater than 100 µM and the GI50 (OVCAR-8; Homo sapiens, Ovarian Cancer OVCAR-8) was 8.66 µM. The CC50 (OVCAR-8; Homo sapiens, Ovarian Cancer OVCAR-8, read-out: LC50 (the source's name)) was greater than 100 µM, the growth percentage (OVCAR-8; OVCAR-8 (Ovarian Cancer), 10 μM, 48 hours) was -46.09% and the TGI (OVCAR-8; Ovarian Cancer OVCAR-8) was greater than 100 µM. For the same compound, the TGI (SW-620; Colon Cancer SW-620) was greater than 100 µM, the GI50 (SW-620; [5]) was 5.14 µM and the LC50 (concentration killing 50% of cells) (SW-620; [5]) was greater than 100 µM. For the same compound, the growth percentage (SW-620; SW-620 (Colon Cancer), 10 μM, 48 hours) was -73.67%, the GI50 (OVCAR-4; Homo sapiens, Ovarian Cancer OVCAR-4) was 6.39 µM and the CC50 (OVCAR-4; Homo sapiens, Ovarian Cancer OVCAR-4, read-out: LC50 (the source's name)) was greater than 100 µM. The growth percentage (OVCAR-4; OVCAR-4 (Ovarian Cancer), 10 μM, 48 hours) was 35.59%, the TGI (OVCAR-4; Ovarian Cancer OVCAR-4) was greater than 100 µM and the TGI (MDA-MB-231/ATCC; Breast Cancer MDA-MB-231/ATCC) was greater than 100 µM. The GI50 (MDA-MB-231/ATCC; [6]) was 7.23 µM, the LC50 (concentration giving 50% net cell kill) (MDA-MB-231/ATCC; [6]) was greater than 100 µM and the growth percentage (MDA-MB-231/ATCC; MDA-MB-231/ATCC (Breast Cancer), 10 μM, 48 hours) was -10.45%. For the same compound, the TGI (T-47D; Breast Cancer T-47D) was greater than 100 µM, the GI50 (T-47D; Homo sapiens, T47D, Breast Cancer T-47D) was 8.44 µM and the CC50 (T-47D; Homo sapiens, T47D, Breast Cancer T-47D, read-out: LC50 (the source's name)) was greater than 100 µM. For the same compound, the growth percentage (T-47D; T-47D (Breast Cancer), 10 μM, 48 hours) was -31.54%, the TGI (SF-295; CNS Cancer SF-295) was greater than 100 µM and the GI50 (SF-295; [7]) was 7.79 µM. The LC50 (concentration killing 50% of cells) (SF-295; [7]) was greater than 100 µM, the growth percentage (SF-295; SF-295 (CNS Cancer), 10 μM, 48 hours) was 23.75% and the TGI (MCF7; Breast Cancer MCF7) was greater than 100 µM. The GI50 (MCF7; Homo sapiens, Breast Cancer MCF7) was 5.42 µM, the CC50 (MCF7; Homo sapiens, Breast Cancer MCF7, read-out: LC50 (the source's name)) was greater than 100 µM and the growth percentage (MCF7; MCF7 (Breast Cancer), 10 μM, 48 hours) was -100.00%. It also gave a growth percentage (COLO 205; COLO 205 (Colon Cancer), 10 μM, 48 hours) of -81.49%, a TGI (COLO 205; Colon Cancer COLO 205) greater than 100 µM and a GI50 (COLO 205; [8]) of 12.2 µM. The LC50 (50% lethal concentration) (COLO 205; [8]) was greater than 100 µM, the GI50 (PC-3; Homo sapiens, Prostate Cancer PC-3) was 5.93 µM and the CC50 (PC-3; Homo sapiens, Prostate Cancer PC-3, read-out: LC50 (the source's name)) was greater than 100 µM. It also gave a growth percentage (PC-3; PC-3 (Prostate Cancer), 10 μM, 48 hours) of -58.51%, a TGI (PC-3; Prostate Cancer PC-3) greater than 100 µM and a TGI (SF-539; CNS Cancer SF-539) greater than 100 µM. It also gave a GI50 (SF-539; [9]) of 14.2 µM, an LC50 (concentration giving 50% net cell kill) (SF-539; [9]) greater than 100 µM and a growth percentage (SF-539; SF-539 (CNS Cancer), 10 μM, 48 hours) of 36.91%. For the same compound, the GI50 (UACC-62; Homo sapiens, Melanoma UACC-62) was 4.38 µM, the CC50 (UACC-62; Homo sapiens, Melanoma UACC-62, read-out: LC50 (the source's name)) was greater than 100 µM and the TGI (UACC-62; Melanoma UACC-62) was greater than 100 µM. It also gave a growth percentage (UACC-62; UACC-62 (Melanoma), 10 μM, 48 hours) of -81.71%, a GI50 (SR; Homo sapiens, Leukemia SR) of 3.09 µM and an LC50 (50% lethal concentration) (SR; Homo sapiens, Leukemia SR) greater than 100 µM. For the same compound, the TGI (SR; Leukemia SR) was greater than 100 µM, the growth percentage (SR; SR (Leukemia), 10 μM, 48 hours) was -55.19% and the GI50 (NCI-H322M; Homo sapiens, Non-Small Cell Lung Cancer NCI-H322M) was 5.62 µM. It also gave a CC50 (NCI-H322M; Homo sapiens, Non-Small Cell Lung Cancer NCI-H322M, read-out: LC50 (the source's name)) greater than 100 µM, a growth percentage (NCI-H322M; NCI-H322M (Non-Small Cell Lung Cancer), 10 μM, 48 hours) of 35.89% and a TGI (NCI-H322M; Non-Small Cell Lung Cancer NCI-H322M) greater than 100 µM. It also gave a GI50 (SN12C; Homo sapiens, Renal Cancer SN12C) of 5.42 µM, a CC50 (SN12C; Homo sapiens, Renal Cancer SN12C, read-out: LC50 (the source's name)) greater than 100 µM and a TGI (SN12C; Renal Cancer SN12C) greater than 100 µM. The growth percentage (SN12C; SN12C (Renal Cancer), 10 μM, 48 hours) was 15.89%.
